According to patent US9028845B2, “Chimeric immunomodulatory compounds and methods of using the same-IV” (Dynavax Technologies Corporation, priority 2001, dated 2015):

Assays:
CD19+ B cells = experiment: Human B cell proliferation assay (3H-thymidine incorporation); details: purified human B cells, 5 μg/ml, 96 h
human PBMCs = experiment: Human PBMC cytokine response assay (IFN-γ and IFN-α in cell-free medium by ELISA), with or without cPLGA; format: cell-based; details: PBMCs from 8 donors, 20 μg/ml, 24 h

Substance	B cell proliferation (FIG. 11), in words (CD19+ B cells)	IFN-α induction (FIG. 10), in words (human PBMCs)
(5′-TCGTTCG-3′-HEG)2-glycerol-HEG-5′-TCGTTCG-3′ [Compound C-158]	induce B cells to proliferate	induce high levels of IFN-α
(5′-TCGACGT-3′-HEG)3-trebler-HEG-5′-TCGACGT-3′ [Compound C-125]	induce very little B cell proliferation	induce high levels of IFN-α
(5′-TCGATCG-3′-HEG)2-glycerol-HEG-5′-TCGATCG-3′ [Compound C-145]	induce very little B cell proliferation	induce high levels of IFN-α
